Test results: US7041785B1, “B1-bradykinin receptor antagonists and use thereof” (Université de Sherbrooke, priority 1996, dated 2006)
Non-standard residues stand in square brackets, D forms with d. Residues, ends and D or L forms follow the SMILES beside them. Oic = O=C(O)[C@@H]1C[C@@H]2CCCC[C@@H]2N1; d2Nal = N[C@H](Cc1ccc2ccccc2c1)C(=O)O; Hyp = O=C(O)[C@@H]1C[C@@H](O)CN1; dTic = O=C(O)[C@H]1Cc2ccccc2CN1; 2Thi = N[C@@H](Cc1cccs1)C(=O)O

Assays:
human B1 receptor = target: T1, human B1 receptor (Homo sapiens, UniProt P46663); assay: cell-based; settings: Human umbilical vein B1 receptor pA2, vs desArg9BK, HOE140 400 nmol/L present
T1 sequence (P46663 1-353): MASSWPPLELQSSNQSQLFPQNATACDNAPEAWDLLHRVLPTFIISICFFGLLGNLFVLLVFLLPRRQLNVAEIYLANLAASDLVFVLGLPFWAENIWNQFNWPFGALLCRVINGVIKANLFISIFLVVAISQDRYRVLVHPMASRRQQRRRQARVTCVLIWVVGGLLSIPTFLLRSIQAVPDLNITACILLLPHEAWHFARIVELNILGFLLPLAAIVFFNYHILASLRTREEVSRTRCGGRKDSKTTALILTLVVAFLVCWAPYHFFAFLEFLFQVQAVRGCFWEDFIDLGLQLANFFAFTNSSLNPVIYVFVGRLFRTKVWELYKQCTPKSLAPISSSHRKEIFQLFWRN
Text: (§1) Tissues were taken from New Zealand white rabbits (1.5–2.5 kg) and Dunken Hartley guinea pigs (250–350 g) of either sex, killed by stunning and exsanguination. Umbilical cords were taken from healthy women 22–40 years old after spontaneous delivery at term. The rabbit jugular vein (RbJV), the guinea pig ileum (GPI), two preparations containing B2 receptors, the rabbit aorta (RbA) (B1 receptor) and the human umbilical vein (HUV), a mixed preparation containing both B1 and B2 receptors^10, were used. Helical strips of RbJV treated with 1 μmol/L of captopril to avoid peptide degradation by the angiotensin-converting enzyme (ACE), alias kininase II were prepared according to Gaudreau et al.^11 Helical strips of RbA devoid of endothelium were prepared according to Furchgott and Bhadrakom^12. Longitudinal segments of GPI were prepared with the procedure described by Rang^13. Helical strips of HUV were prepared according to Gobeil et al.^10. The tissues were suspended in 10-ml organ baths containing warm (37EC), oxygenated (95% O2–5% CO2) Krebs solution of the following composition in mmol/L; NaCl: 118.1; KCl: 4.7; CaCl26H2O: 2.5; KH2PO4: 1.2; MgSO47H2O: 1.18; NaHCO3: 25.0 and D-Glucose: 5.5. The RbA and the HUV were stretched with an initial tension of 2 g, whereas the RbJV and the GPI were loaded with 0.5 g. Changes of tension produced by the various agents were measured with Grass isometric transducers (model FT 03C, Grass Instrument Co., Quincy, Mass.). […] Before testing the drugs, the tissues were allowed to equilibrate for 60–120 min during which time the tissues were repeatedly washed and the tension readjusted every 15 min.
(§2) At the beginning of each experiment, a submaximal dose of bradykinin (BK) (9 nmol/L), was applied repeatedly on the RbJV, the GPI or the HUV to ensure that tissues responded with stable contractions. […] A similar protocol was used for the HUV.
(§3) Repeated applications of a singl and double concentration of BK (on RbJV, GPI and HUV) and of desArg^9BK (RbA and HUV) were made in the absence and in presence of the various peptides to evaluate their apparent affinities as antagonists, in terms of pA2 (-log10 of the molar concentration of antagonist that reduces the effect of a double concentration of agonist to that of a single one)^14. The antagonists were applied 10 min before measuring the myotropic effects of either BK (the B2 receptor agonist) or desArg^9BK (the B1 receptor agonist). […] All kinin antagonists were initially applied to tissues at concentration of 10 μg/mL to measure their potential agonistic activities (α^E) in comparison with BK (in the B2 receptor preparations) or desArg^9BK (in the B1 receptor preparations).

[1] = tested on: T2, angiotensin-converting enzyme (ACE); assay: Metabolic degradation by purified angiotensin-converting enzyme, HPLC analysis; format: in vitro ADME, rabbit; settings: rabbit, isolated enzyme ace, pH 7.5
T2 construct: purified angiotensin-converting enzyme (ACE) from rabbit lungs; purchased Sigma, St-Louis, Mo; host or cells: purified from rabbit lungs
Experimental: The metabolic stability of various kinin-related peptides was evaluated by incubating the peptide in the presence of purified angiotensin-converting enzyme (ACE) from rabbit lungs (purchased from Sigma, St-Louis, Mo.) dissolved in phosphate buffered saline (PBS) (50 mmol/L, pH 7.5 containing 300 mmoL/L NaCl); the final concentration of enzyme was 45 μg/mL. The experimental protocol for the measurement of ACE activity has been described elsewhere^15,16. Briefly, 200 μmol/L of peptides (40 μL) were placed in a PBS buffer and incubated for 5 min at 37EC before adding 8.5 μL of ACE (total volume of the reaction medium; 190 μL). Samples were withdrawn at 30 min intervals, immersed in boiling water for 5 min, then cooled on ice and centrifuged (5 min) before proceeding to analysis of peptides by high pressure liquid chromatography (HPLC). Results of ACE metabolism are expressed in percent of kinin degradation following the incubation (30 min) of kinin substrates with the enzyme.
Pure peptides and metabolic products were analysed by reverse-phas HPLC on a C18 μBondapak column (4.6 mm×25 cm) (Waters) of 10-μm particle size. The peptides and their fragments were eluted at the rate of 2.0 mL/min. with a linear gradient ranging from 5 to 65% of acetonitrile/TFA 0.05%/water over 20 min. at room temperature. The elution positions of these peptides were determined by following the absorbance at 214 nm. For each assay, 50 μL of the reaction medium (treated or not with ACE) were extracted and injected into the column. Concentrations of the peaks products, different from the peaks of the peptide substrate, were estimated using a computer software program (Baseline 810; Waters) that controlled also all the chromatography operations. Isolated metabolites and substrates were collected and identified by Electrospray mass spectrometry (positive mode).

B1 receptor = target: T3, B1 receptor (Oryctolagus cuniculus, UniProt P48748); assay: cell-based; settings: Rb.A. pA2, apparent affinity as antagonist vs desArg9BK; antagonist applied 10 min before; Inactive = no detectable antagonistic effect at ≦ 10 μg/ml
T3 sequence (P48748 1-352): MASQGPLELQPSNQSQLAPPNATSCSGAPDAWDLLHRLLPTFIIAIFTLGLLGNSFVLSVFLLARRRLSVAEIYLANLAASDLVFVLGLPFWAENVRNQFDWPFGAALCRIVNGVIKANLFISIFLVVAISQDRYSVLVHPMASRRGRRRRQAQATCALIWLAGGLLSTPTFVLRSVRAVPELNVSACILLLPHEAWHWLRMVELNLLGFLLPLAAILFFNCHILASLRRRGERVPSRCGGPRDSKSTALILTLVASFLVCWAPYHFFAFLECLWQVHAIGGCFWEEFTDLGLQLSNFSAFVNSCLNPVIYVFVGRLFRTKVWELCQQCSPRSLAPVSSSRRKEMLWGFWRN
Text: as §1, §2, §3

B2 receptor [2] = target: T4, B2 receptor (Cavia porcellus, UniProt O70526); assay: cell-based; settings: for G.P.I. pA2: vs BK, Inactive = no detectable antagonistic effect at ≦ 10 μg/ml, F.ag. full agonist, P.ag. partial agonist
T4 sequence (O70526 1-372): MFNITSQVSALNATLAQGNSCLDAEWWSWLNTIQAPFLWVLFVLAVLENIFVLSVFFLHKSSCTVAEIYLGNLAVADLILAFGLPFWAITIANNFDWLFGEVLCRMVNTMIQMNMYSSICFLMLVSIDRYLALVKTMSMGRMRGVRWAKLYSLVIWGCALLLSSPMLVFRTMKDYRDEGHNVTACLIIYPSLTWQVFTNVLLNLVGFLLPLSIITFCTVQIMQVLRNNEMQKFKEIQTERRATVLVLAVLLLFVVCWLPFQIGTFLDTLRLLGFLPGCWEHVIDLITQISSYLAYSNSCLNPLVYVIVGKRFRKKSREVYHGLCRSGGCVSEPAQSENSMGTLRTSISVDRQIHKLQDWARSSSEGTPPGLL
Text: as §1, §2, §3

B2 receptor [3] = target: T5, B2 receptor (Oryctolagus cuniculus, UniProt Q28642); settings: vs BK; captopril 1 μmol/L; Inactive = no detectable antagonistic effect at ≦ 10 μg/ml
T5 sequence (Q28642 1-367): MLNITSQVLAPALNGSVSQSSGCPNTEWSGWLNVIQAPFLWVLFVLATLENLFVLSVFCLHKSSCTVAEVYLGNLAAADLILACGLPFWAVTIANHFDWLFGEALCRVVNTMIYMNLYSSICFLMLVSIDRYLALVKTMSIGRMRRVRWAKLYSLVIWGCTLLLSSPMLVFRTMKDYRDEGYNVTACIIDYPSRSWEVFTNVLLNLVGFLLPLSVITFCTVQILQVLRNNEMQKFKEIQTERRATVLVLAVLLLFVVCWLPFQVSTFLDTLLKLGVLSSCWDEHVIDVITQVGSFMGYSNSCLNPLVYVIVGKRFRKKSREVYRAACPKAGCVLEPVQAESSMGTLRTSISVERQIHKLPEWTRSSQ

B2 receptor [4] = target: T5, B2 receptor; assay: cell-based
Text: as §1, §2, §3

| Compound | Kb (human B1 receptor) | metabolised at 0.5 h, 42.1 μmol/L [1] | Kb (B1 receptor) | G.P.I. pA2 (B2 receptor [2]) | Rb.J.V. pA2 (B2 receptor [3]) | Kb (B2 receptor [2]) | Kb (B2 receptor [4]) | metabolised at 0.5 h [1] |
| --- | --- | --- | --- | --- | --- | --- | --- | --- |
| CC[C@H](C)[C@H](NC(=O)[C@@H](Cc1ccc2ccccc2c1)NC(=O)[C@H](CO)NC(=O)[C@H](Cc1ccccc1)NC(=O)CNC(=O)[C@@H]1CCCN1C(=O)[C@@H]1CCCN1C(=O)[C@H](CCCN=C(N)N)NC(=O)[C@H](CCCCN)NC(C)=O)C(=O)O [AcLys(D-βNal^7, Ile^8)desArg^9BK] (Ac-KRPPGFS[d2Nal]I-OH) | 3.24 nM | – | – | – | – | – | – | – |
| CC(C)C[C@H](NC(=O)[C@@H]1CCCN1C(=O)[C@H](CO)NC(=O)[C@H](Cc1ccccc1)NC(=O)CNC(=O)[C@@H]1CCCN1C(=O)[C@@H]1CCCN1C(=O)[C@@H](N)CCCNC(=N)N)C(=O)O [Compound 1, (Leu^8)desArg^9BK, reference compound] | – | 83 ± 2% | 57.5 nM | Inactive | Inactive | – | – | – |
| CC(C)C[C@H](NC(=O)[C@@H]1CCCN1C(=O)[C@H](CO)NC(=O)[C@H](Cc1ccccc1)NC(=O)CNC(=O)[C@@H]1CCCN1C(=O)[C@@H]1CCCN1C(=O)[C@H](CCCNC(=N)N)NC(=O)[C@@H](N)CCCCN)C(=O)O [Compound 2, Lys(Leu^8)desArg^9BK, reference compound] | – | 74 ± 2% | – | Inactive | Inactive | – | – | – |
| N=C(N)NCCC[C@@H](N)C(=O)N[C@@H](CCCNC(=N)N)C(=O)N1CCC[C@H]1C(=O)N1C[C@H](O)C[C@H]1C(=O)NCC(=O)N[C@@H](Cc1ccccc1)C(=O)N[C@@H](CO)C(=O)N[C@H](Cc1ccccc1)C(=O)N[C@@H](Cc1ccccc1)C(=O)O [Compound 6, D-Arg(Hyp^3, D-Phe^7)desArg^9BK] (H-[dR]RP[Hyp]GFS[dF]F-OH; N-terminus and C-terminus assumed) | – | – | 363 nM | – | – | > 8910 nM | 2340 nM | – |
| CC(C)C[C@H](NC(=O)[C@@H](Cc1ccccc1)NC(=O)[C@H](CO)NC(=O)[C@H](Cc1ccccc1)NC(=O)CNC(=O)[C@@H]1C[C@@H](O)CN1C(=O)[C@@H]1CCCN1C(=O)[C@H](CCCNC(=N)N)NC(=O)[C@H](N)CCCNC(=N)N)C(=O)O [Compound 7, D-Arg(Hyp^3, D-Phe^7, Leu^8)desArg^9BK] (H-[dR]RP[Hyp]GFS[dF]L-OH; N-terminus and C-terminus assumed) | – | – | 275 nM | Inactive | – | – | 2090 nM | – |
| CC(C)C[C@H](NC(=O)[C@H]1Cc2ccccc2CN1C(=O)[C@H](CO)NC(=O)[C@H](Cc1ccccc1)NC(=O)CNC(=O)[C@@H]1CCCN1C(=O)[C@@H]1CCCN1C(=O)[C@H](CCCNC(=N)N)NC(=O)[C@@H](N)CCCCN)C(=O)O [Compound 10, Lys(D-Tic^7, Leu^8)desArg^9BK] (H-KRPPGFS[dTic]L-OH; N-terminus and C-terminus assumed) | – | – | 316 nM | – | – | – | > 6310 nM | – |
| C[C@H](NC(=O)[C@H]1Cc2ccccc2CN1C(=O)[C@H](CO)NC(=O)[C@H](Cc1ccccc1)NC(=O)CNC(=O)[C@@H]1CCCN1C(=O)[C@@H]1CCCN1C(=O)[C@H](CCCNC(=N)N)NC(=O)[C@H](N)CCCNC(=N)N)C(=O)O [Compound 15, D-Arg(D-Tic^7, Ala^8)desArg^9BK] (H-[dR]RPPGFS[dTic]A-OH; N-terminus and C-terminus assumed) | – | – | > 9550 nM | – | Inactive | – | – | 21 ± 1% |
| N=C(N)NCCC[C@@H](N)C(=O)N[C@@H](CCCNC(=N)N)C(=O)N1CCC[C@H]1C(=O)N1C[C@H](O)C[C@H]1C(=O)NCC(=O)N[C@@H](Cc1ccccc1)C(=O)N[C@@H](CO)C(=O)N1Cc2ccccc2C[C@@H]1C(=O)N[C@@H](Cc1ccccc1)C(=O)O [Compound 16, D-Arg(Hyp^3, D-Tic^7)desArg^9BK] (H-[dR]RP[Hyp]GFS[dTic]F-OH; N-terminus and C-terminus assumed) | – | – | 186 nM | – | – | – | > 2190 nM | 0% |
| N=C(N)NCCC[C@H](N)C(=O)N1CCC[C@H]1C(=O)N1C[C@H](O)C[C@H]1C(=O)NCC(=O)N[C@@H](Cc1cccs1)C(=O)N[C@@H](CO)C(=O)N1Cc2ccccc2C[C@@H]1C(=O)N1[C@H](C(=O)O)C[C@@H]2CCCC[C@@H]21 [Compound 32, (Hyp^3, Thi^5, D-Tic^7, Oic^8)desArg^9BK, reference compound] (H-RP[Hyp]G[2Thi]S[dTic][Oic]-OH; N-terminus and C-terminus assumed) | – | – | 479 nM | – | – | > 7590 nM | 447 nM | 0% |
